Entries after “also recorded” stand apart in the source; their conditions may differ.
Assays:
[1] = tested on: HUVEC; assay: Sprouting assay on dextran beads (anti-angiogenic activity); assay type: cell-based
Procedure: This assay is an unpublished variation of the assay described (Microvascular Research 2003, 66, 102-112) performed by the Hans Hammers Lab at Johns Hopkins University. The assay described in the above reference is described below.
HUVEC were mixed with dextran-coated Cytodex 3 microcarriers (Amersham Pharmacia Biotech, Piscataway, N.J.) at a concentration of 400 HUVEC per bead in 1 ml of EGM-2 medium (Clonetics, Walkersville, Md.). Beads with cells were shaken gently every 20 min for 4 h at 37° C. and 5% CO2. After incubating, beads with cells were transferred to a 25-cm^2 tissue culture flask (BD Biosciences, Bedford, Mass.) and left for 12-16 h in 5 ml of EGM-2 at 37° C. and 5% CO2. The following day, beads with cells were washed three times with 1 ml of EGM-2 and resuspended at a concentration of 200 cell-coated beads/ml in 2.5 mg/ml of fibrinogen (Sigma, St. Louis, Mo.) with or without 0.15 units/ml of aprotinin (Sigma) at a pH of 7.4. Five hundred microliters of fibrinogen/bead solution was added to 0.625 units of thrombin (Sigma) in one well of a 24-well tissue culture plate. […] Bead assays were monitored for 7 days. […]

[2] = tested on: SF-295; assay: NCI-60 DTP Human Tumor Cell Line Screen; assay type: cell-based; conditions: SF-295, CNS Cancer, 48 h
[3] = tested on: A498; assay: NCI-60 DTP Human Tumor Cell Line Screen; assay type: cell-based; conditions: A498, Renal Cancer, 48 h
[4] = tested on: PC-3; assay: NCI-60 DTP Human Tumor Cell Line Screen; assay type: cell-based; conditions: PC-3, Prostate Cancer, 48 h
[5] = tested on: HCT-15; assay: NCI-60 DTP Human Tumor Cell Line Screen; assay type: cell-based; conditions: HCT-15, Colon Cancer, 48 h
[6] = tested on: HS 578T; assay: NCI-60 DTP Human Tumor Cell Line Screen; assay type: cell-based; conditions: Breast Cancer, 48 h
[7] = tested on: A549 NSCLC cells; assay: Cell cycle analysis (PI and flow cytometry); assay type: cell-based; conditions: A549, 0, 3, or 10 μM for 72 h, nocodazole for the last 24 h
Procedure: PI and flow cytometry analysis were performed to study the effects of prodrug 14 on cell cycle.
Briefly, A549 NSCLC cells were plated at 6.7×10^4 cells per well in flat bottom 6-well plates. Cells were dosed as described above. At 24, 48 or 72 hours following drug treatment, the media was collected, and the cells were washed with 1 mL PBS. Each well was trypsinized with 600 μL trypsin for 3-5 min. The trypsin reaction was quenched with an equal volume of media. All supernatants and washes were combined and centrifuged at 1,500 rpm for 5 min. Supernantant was decanted, and the cells were washed with 2 mL 1% FBS/PBS. Cells were centrifuged at 1,500 rpm for 5 min, and the supernatant was decanted. Cells were resuspended in 1 mL cold PBS, fixed in cold 70% ethanol and incubated at 4° C. for at least 30 min. Cells were centrifuged at 1,500 rpm for 5 min, washed with 1% FBS/PBS, and resuspended in 1 mL of 2:1 1% FBS in PBS/phosphate citric acid buffer (pH 7.8). Cells were incubated at room temperature for 5 min, then spun at 1,500 rpm for 5 min. The supernatant was decanted, the cells were resuspended and incubated in 300 μL PBS/FBS/PURNase solution (10 μg/mL propidium iodide and 3 K.U. of RNase A) for 30 mM at 37° C. Flow cytometry was performed to analyze DNA content, collecting ten thousand PI positive gated events per sample.

[8] = tested on: SF-268; assay: NCI-60 DTP Human Tumor Cell Line Screen; assay type: cell-based; conditions: SF-268, CNS Cancer, 48 h
[9] = tested on: HOP-62; assay: NCI-60 DTP Human Tumor Cell Line Screen; assay type: cell-based; conditions: HOP-62, Non-Small Cell Lung Cancer, 48 h
[10] = tested on: SR; assay: NCI-60 DTP Human Tumor Cell Line Screen; assay type: cell-based; conditions: Leukemia, 48 h
[11] = tested on: P. falciparum (NF54); assay: Antimalarial [3H]-hypoxanthine incorporation assay; assay type: cell-based, Plasmodium falciparum; conditions: P. falciparum (NF54); read-out: IC50
Procedure: Plasmodium falciparum culture. NF54 P. falciparum parasites were maintained in O+ positive erythrocytes (obtained weekly from a rotating pool of screened healthy donors) in complete medium containing RPMI (Sigma), 25 mM N-2-hydroxyethylpiperazine-N′-2-ethanesulfonic acid (HEPES; Sigma), 27 mM sodium bicarbonate (Sigma) and 10% heat-inactivated male O+ serum in non-vented flasks. Hematocrit was maintained at 2.4%. Flasks were gassed with a mixture of 3% oxygen, 4% carbon dioxide, 93% nitrogen. Parasitemia was maintained at 0.1-5% by changing medium and erythrocytes two to three times a week.
Antimalarial activity was measured using a [^3H]-hypoxanthine incorporation assay as described previously (Desjardins et al., Antimicrob. Agents Chemother., vol. 16, p. 710, 1979; Milhous et al., Antimicrob. Agents Chemother., vol. 27, np. 525, 1985). […] For surveys, each concentration was assayed in triplicate while in expansions, each concentration was assayed in quadruplicate. To each well, 0.64 μCi of [^3H]-hypoxanthine (10-30 Ci/mmol; Perkin Elmer) was added and the plate was incubated for an additional 20 to 24 h. Samples from each well were harvested on filter paper and tritium counts were measured on the Beckmann Coulter LS6500 scintillation counter. […] Values considered as outliers according to Chauvenet's criterion were discarded and dropped from analysis. One survey and at least one expansion was performed for each compound.

[12] = tested on: SK-OV-3; assay: NCI-60 DTP Human Tumor Cell Line Screen; assay type: cell-based; conditions: SK-OV-3, Ovarian Cancer, 48 h
[13] = tested on: MALME-3M; assay: NCI-60 DTP Human Tumor Cell Line Screen; assay type: cell-based; conditions: Melanoma, 48 h
[14] = tested on: SF-539; assay: NCI-60 DTP Human Tumor Cell Line Screen; assay type: cell-based; conditions: SF-539, CNS Cancer, 48 h
[15] = tested on: OPVCAR-5; assay: NCI-60 DTP Human Tumor Cell Line Screen; assay type: cell-based; conditions: OPVCAR-5, Ovarian Cancer, 48 h
[16] = tested on: TK-10; assay: NCI-60 DTP Human Tumor Cell Line Screen; assay type: cell-based; conditions: TK-10, Renal Cancer, 48 h
[17] = tested on: NCI/ADR-RES; assay: NCI-60 DTP Human Tumor Cell Line Screen; assay type: cell-based; conditions: Ovarian Cancer, 48 h

SMILES: CN(CCCCCl)P(=O)(OCc1ccc([N+](=O)[O-])cc1)C(Cl)(Cl)P(=O)(OCc1ccc([N+](=O)[O-])cc1)N(C)CCCCCl (stereo not shown) [compound 14]
- sprouting ([1]; 6 μM): sprouting was delayed for the first few days
- sprouting ([1]; 10 μM): sprouting is inhibited
- Log10GI50 [2]: −5.61
- Log10LC50 [2]: >−4.00
- Log10TGI [2]: −4.77
- Log10GI50 [3]: −5.74
- Log10LC50 [3]: >−4.00
- Log10TGI [3]: −5.17
- Log10GI50 [4]: −5.44
- Log10LC50 [4]: >−4.00
- Log10TGI [4]: >−4.00
- Log10GI50 [5]: −5.41
- Log10LC50 [5]: >−4.00
- Log10TGI [5]: >−4.00
- Log10GI50 [6]: −5.53
- Log10LC50 [6]: >−4.00
- Log10TGI [6]: −5.04
- effect on cell cycle [7]: G1 cell cycle arrest; also recorded: accumulation of cells in G1 phase is evident
- Log10GI50 [8]: −5.55
- Log10LC50 [8]: >−4.00
- Log10TGI [8]: >−4.00
- Log10GI50 [9]: >−4.00
- Log10LC50 [9]: >−4.00
- Log10TGI [9]: >−4.00
- Log10GI50 [10]: −5.43
- Log10LC50 [10]: >−4.00
- Log10TGI [10]: >−4.00
- IC50 [11]: 980 ± 210 nM
- Log10GI50 [12]: −5.19
- Log10LC50 [12]: >−4.00
- Log10TGI [12]: >−4.00
- Log10GI50 [13]: −5.39
- Log10LC50 [13]: >−4.00
- Log10TGI [13]: >−4.00
- Log10GI50 [14]: −5.44
- Log10LC50 [14]: >−4.00
- Log10TGI [14]: >−4.00
- Log10GI50 [15]: −5.45
- Log10LC50 [15]: >−4.00
- Log10TGI [15]: >−4.00
- Log10GI50 [16]: −5.35
- Log10LC50 [16]: >−4.00
- Log10TGI [16]: >−4.00
- Log10GI50 [17]: −5.58
- Log10LC50 [17]: >−4.00
- Log10TGI [17]: >−4.00
